Measurements as given in paper PMC11345841, “Exploring 2-Sulfonylpyrimidine Warheads as Acrylamide Surrogates for Targeted Covalent Inhibition: A BTK Story” (Journal of Medicinal Chemistry, 2024).

Experiments:
wild-type BTK [1] = molecular target: T1, wild-type BTK (Homo sapiens, UniProt Q06187); test: BTK in vitro activity assay (ADP-Glo, poly-Glu:Tyr phosphorylation, TCEP); details: for remaining activity at 0.1 µM: read-out: Remaining BTK activity (%); for inhibition at 0.1 µM: read-out: inhibition of BTK activity
T1 sequence (Q06187 whole entry): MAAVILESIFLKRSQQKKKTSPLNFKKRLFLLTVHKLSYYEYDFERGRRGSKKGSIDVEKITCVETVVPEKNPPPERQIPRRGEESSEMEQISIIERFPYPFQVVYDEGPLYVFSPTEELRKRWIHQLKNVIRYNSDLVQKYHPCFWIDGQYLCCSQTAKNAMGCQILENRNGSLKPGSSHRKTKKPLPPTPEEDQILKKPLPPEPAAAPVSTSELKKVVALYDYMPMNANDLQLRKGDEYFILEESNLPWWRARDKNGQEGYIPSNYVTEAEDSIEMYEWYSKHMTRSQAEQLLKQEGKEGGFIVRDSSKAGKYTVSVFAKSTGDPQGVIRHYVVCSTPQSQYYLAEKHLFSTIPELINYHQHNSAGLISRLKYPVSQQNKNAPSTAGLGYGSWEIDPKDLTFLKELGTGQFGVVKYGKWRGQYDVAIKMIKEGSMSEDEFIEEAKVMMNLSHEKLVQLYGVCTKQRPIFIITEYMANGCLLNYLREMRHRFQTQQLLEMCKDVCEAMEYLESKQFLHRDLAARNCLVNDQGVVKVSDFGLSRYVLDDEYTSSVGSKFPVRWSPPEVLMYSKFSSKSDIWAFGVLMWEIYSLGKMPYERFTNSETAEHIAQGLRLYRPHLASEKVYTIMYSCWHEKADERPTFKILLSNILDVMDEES

wild-type BTK [2] = molecular target: T1, wild-type BTK; test: BTK in vitro activity assay in the presence of DTT vs TCEP (Figure S6); type: biochemical; details: 100 nM compound; 2 mM DTT instead of TCEP

remaining activity at 0.1 µM (wild-type BTK [1]) [%] | inhibition at 0.1 µM (wild-type BTK [1]) [%] | BTK inhibition in the presence of DTT (wild-type BTK [2]) | Structure (SMILES)
76 ± 2 |  |  | COC(=O)c1cnc(SC)nc1N1CCC[C@@H](n2nc(-c3ccc(Oc4ccccc4)cc3)c3c(N)ncnc32)C1 [Compound 7b, Methyl (R)-4-(3-(4-Amino-3-(4-phenoxyphenyl)-1H-pyrazolo[3,4-d]pyrimidin-1-yl)piperidin-1-yl)-2-(methylthio)pyrimidine-5-carboxylate]
35 ± 1 | 40 to 60 |  | Nc1ncnc2c1c(-c1ccc(Oc3ccccc3)cc1)nn2C1CCCN(C(=O)c2cnc(S(=O)(=O)c3ccccc3)nc2)C1 (stereo in doubt) [Compound 5g, (R)-(3-(4-Amino-3-(4-phenoxyphenyl)-1H-pyrazolo[3,4-d]pyrimidin-1-yl)piperidin-1-yl)(2-(phenylsulfonyl)pyrimidin-5-yl)methanone]
69 ± 2 |  |  | CSc1ncc(N2CCCC(n3nc(-c4ccc(Oc5ccccc5)cc4)c4c(N)ncnc43)C2)c(C)n1 (stereo not drawn) [Compound 7e, 1-(1-(4-Methyl-2-(methylthio)pyrimidin-5-yl)piperidin-3-yl)-3-(4-phenoxyphenyl)-1H-pyrazolo[3,4-d]pyrimidin-4-amine]
38 ± 2 | 40 to 60 |  | CCCCS(=O)(=O)c1ncc(C(=O)N2CCCC(n3nc(-c4ccc(Oc5ccccc5)cc4)c4c(N)ncnc43)C2)cn1 (stereo in doubt) [Compound 5f, (R)-(3-(4-Amino-3-(4-phenoxyphenyl)-1H-pyrazolo[3,4-d]pyrimidin-1-yl)piperidin-1-yl)(2-(butylsulfonyl)pyrimidin-5-yl)methanone]
9 ± 2 | 80 to 90 |  | CS(=O)(=O)c1ncc(C(=O)N2CCCC(n3nc(-c4ccc(Oc5ccccc5)cc4)c4c(N)ncnc43)C2)cn1 (stereo in doubt) [Compound 5e, (R)-(3-(4-Amino-3-(4-phenoxyphenyl)-1H-pyrazolo[3,4-d]pyrimidin-1-yl)piperidin-1-yl)(2-(methylsulfonyl)pyrimidin-5-yl)methanone]
53 ± 2 |  |  | Nc1ncnc2c1c(-c1ccc(Oc3ccccc3)cc1)nn2[C@@H]1CCCN(C(=O)c2ccncn2)C1 [Compound 12a, (R)-(3-(4-Amino-3-(4-phenoxyphenyl)-1H-pyrazolo[3,4-d]pyrimidin-1-yl)piperidin-1-yl)(pyrimidin-4-yl)methanone]
40 ± 0.3 |  |  | CSc1ncc(C)c(N2CCCC(n3nc(-c4ccc(Oc5ccccc5)cc4)c4c(N)ncnc43)C2)n1 (stereo not drawn) [Compound 7a, 1-(1-(5-Methyl-2-(methylthio)pyrimidin-4-yl)piperidin-3-yl)-3-(4-phenoxyphenyl)-1H-pyrazolo[3,4-d]pyrimidin-4-amine]
83 ± 7 |  |  | Nc1ncnc2c1c(-c1ccc(Oc3ccccc3)cc1)nn2[C@@H]1CCCN(C(=O)c2cncnc2)C1 [Compound 12b, (R)-(3-(4-Amino-3-(4-phenoxyphenyl)-1H-pyrazolo[3,4-d]pyrimidin-1-yl)piperidin-1-yl)(pyrimidin-5-yl)methanone]
103 ± 5 |  |  | CS(=O)(=O)c1ncc(N2CCC[C@@H](n3nc(-c4ccc(Oc5ccccc5)cc4)c4c(N)ncnc43)C2)cn1 [Compound 9b, (R)-1-(1-(2-(Methylsulfonyl)pyrimidin-5-yl)piperidin-3-yl)-3-(4-phenoxyphenyl)-1H-pyrazolo[3,4-d]pyrimidin-4-amine]
58 ± 3 | 40 to 60 |  | CCCCS(=O)(=O)c1nccc(C(=O)N2CCC[C@H](n3nc(-c4ccc(Oc5ccccc5)cc4)c4c(N)ncnc43)C2)n1 [Compound 5b, (3-(4-Amino-3-(4-phenoxyphenyl)-1H-pyrazolo[3,4-d]pyrimidin-1-yl)piperidin-1-yl)(2-(butylsulfonyl)pyrimidin-4-yl)methanone]
17 ± 1 | 80 to 90 |  | CS(=O)(=O)c1nccc(C(=O)N2CCCC(n3nc(-c4ccc(Oc5ccccc5)cc4)c4c(N)ncnc43)C2)n1 (stereo in doubt) [Compound 5a, (R)-(3-(4-Amino-3-(4-phenoxyphenyl)-1H-pyrazolo[3,4-d]pyrimidin-1-yl)piperidin-1-yl)(2-(methylsulfonyl)pyrimidin-4-yl)methanone]
40 ± 1 | 40 to 60 |  | Nc1ncnc2c1c(-c1ccc(Oc3ccccc3)cc1)nn2[C@H]1CCCN(C(=O)c2ccnc(S(=O)(=O)c3ccccc3)n2)C1 [Compound 5c, (3-(4-Amino-3-(4-phenoxyphenyl)-1H-pyrazolo[3,4-d]pyrimidin-1-yl)piperidin-1-yl)(2-(phenylsulfonyl)pyrimidin-4-yl)methanone]
78 ± 2 |  |  | CNC(=O)c1cnc(SC)nc1N1CCCC(n2nc(-c3ccc(Oc4ccccc4)cc3)c3c(N)ncnc32)C1 (stereo not drawn) [Compound 7d, 4-(3-(4-Amino-3-(4-phenoxyphenyl)-1H-pyrazolo[3,4-d]pyrimidin-1-yl)piperidin-1-yl)-N-methyl-2-(methylthio)pyrimidine-5-carboxamide]
105 ± 4 |  |  | CCOC(=O)c1cnc(SC)nc1N1CCC[C@@H](n2nc(-c3ccc(Oc4ccccc4)cc3)c3c(N)ncnc32)C1 [Compound 7c, Ethyl (R)-4-(3-(4-Amino-3-(4-phenoxyphenyl)-1H-pyrazolo[3,4-d]pyrimidin-1-yl)piperidin-1-yl)-2-(methylthio)pyrimidine-5-carboxylate]
17 ± 2 | 80 to 90 | almost no inhibition | CS(=O)(=O)c1ncc(Cl)c(C(=O)N2CCCC(n3nc(-c4ccc(Oc5ccccc5)cc4)c4c(N)ncnc43)C2)n1 (stereo in doubt) [Compound 5d, (R)-(3-(4-Amino-3-(4-phenoxyphenyl)-1H-pyrazolo[3,4-d]pyrimidin-1-yl)piperidin-1-yl)(5-chloro-2-(methylsulfonyl)pyrimidin-4-yl)methanone]
48 ± 0.3 |  |  | CS(=O)(=O)c1nccc(N2CCC[C@@H](n3nc(-c4ccc(Oc5ccccc5)cc4)c4c(N)ncnc43)C2)n1 [Compound 8e, (R)-1-(1-(2-(Methylsulfonyl)pyrimidin-4-yl)piperidin-3-yl)-3-(4-phenoxyphenyl)-1H-pyrazolo[3,4-d]pyrimidin-4-amine]
80 ± 3 |  |  | Cc1nc(S(C)(=O)=O)ncc1N1CCCC(n2nc(-c3ccc(Oc4ccccc4)cc3)c3c(N)ncnc32)C1 (stereo not drawn) [Compound 9a, 1-(1-(4-Methyl-2-(methylsulfonyl)pyrimidin-5-yl)piperidin-3-yl)-3-(4-phenoxyphenyl)-1H-pyrazolo[3,4-d]pyrimidin-4-amine]

Further lines, the compound ahead of its results:

Structure (SMILES) | remaining activity at 0.1 µM (wild-type BTK [1]) [%] | inhibition at 0.1 µM (wild-type BTK [1]) [%] | BTK inhibition in the presence of DTT (wild-type BTK [2])
Nc1ncnc2c1c(-c1ccc(Oc3ccccc3)cc1)nn2[C@@H]1CCCN(C(=O)c2cnc(Sc3ccccc3)nc2)C1 [Compound 4g, (R)-(3-(4-Amino-3-(4-phenoxyphenyl)-1H-pyrazolo[3,4-d]pyrimidin-1-yl)piperidin-1-yl)(2-(phenylthio)pyrimidin-5-yl)methanone] | 100 ± 6 |  | 
CCCCSc1ncc(C(=O)N2CCC[C@@H](n3nc(-c4ccc(Oc5ccccc5)cc4)c4c(N)ncnc43)C2)cn1 [Compound 4f, (R)-(3-(4-Amino-3-(4-phenoxyphenyl)-1H-pyrazolo[3,4-d]pyrimidin-1-yl)piperidin-1-yl)(2-(butylthio)pyrimidin-5-yl)methanone] | 84 ± 5 |  | 
CSc1ncc(Cl)c(C(=O)N2CCC[C@@H](n3nc(-c4ccc(Oc5ccccc5)cc4)c4c(N)ncnc43)C2)n1 [Compound 4d, (R)-(3-(4-Amino-3-(4-phenoxyphenyl)-1H-pyrazolo[3,4-d]pyrimidin-1-yl)piperidin-1-yl)(5-chloro-2-(methylthio)pyrimidin-4-yl)methanone] | 100 ± 6 |  | 
Nc1ncnc2c1c(-c1ccc(Oc3ccccc3)cc1)nn2[C@@H]1CCCN(C(=O)c2ccnc(Sc3ccccc3)n2)C1 [Compound 4c, (R)-(3-(4-Amino-3-(4-phenoxyphenyl)-1H-pyrazolo[3,4-d]pyrimidin-1-yl)piperidin-1-yl)(2-(phenylthio)pyrimidin-4-yl)methanone] | 98 ± 5 |  | 
Nc1ncnc2c1c(-c1ccc(Oc3ccccc3)cc1)nn2[C@@H]1CCCN(C(=O)c2ccccc2)C1 [Compound 10, (R)-(3-(4-Amino-3-(4-phenoxyphenyl)-1H-pyrazolo[3,4-d]pyrimidin-1-yl)piperidin-1-yl)(phenyl)methanone] | 100 ± 0.2 |  | 
CCCCSc1nccc(C(=O)N2CCC[C@@H](n3nc(-c4ccc(Oc5ccccc5)cc4)c4c(N)ncnc43)C2)n1 [Compound 4b, (R)-(3-(4-Amino-3-(4-phenoxyphenyl)-1H-pyrazolo[3,4-d]pyrimidin-1-yl)piperidin-1-yl)(2-(butylthio)pyrimidin-4-yl)methanone] | 82 ± 1 |  | 
CSc1nccc(C(=O)N2CCC[C@@H](n3nc(-c4ccc(Oc5ccccc5)cc4)c4c(N)ncnc43)C2)n1 [Compound 4a, (R)-(3-(4-Amino-3-(4-phenoxyphenyl)-1H-pyrazolo[3,4-d]pyrimidin-1-yl)piperidin-1-yl)(2-(methylthio)pyrimidin-4-yl)methanone] | 84 ± 8 |  | 
CSc1ncc(C(=O)N2CCC[C@@H](n3nc(-c4ccc(Oc5ccccc5)cc4)c4c(N)ncnc43)C2)cn1 [Compound 4e, (R)-(3-(4-Amino-3-(4-phenoxyphenyl)-1H-pyrazolo[3,4-d]pyrimidin-1-yl)piperidin-1-yl)(2-(methylthio)pyrimidin-5-yl)methanone] | 83 ± 9 |  | 
